# Laboratory results published in US12605350B2, “Composition for preventing, ameliorating, or treating disease caused by nitration of tyrosine in proteins comprising tyrosine as effective component” (INDUSTRY-ACADEMIC COOPERATION FOUNDATION GYEONGSANG …, priority 2020, dated 2026).
# “Also recorded” adds a separate entry of the source.
# Legend:
# [1] = test system: chronic immobilization stress group (STR); experiment: corticosterone amount in plasma (ELISA), chronic immobilization stress; assay type: in vivo, mouse; conditions: tyrosine diet (181.2 mg/kg) compared to normal diet, p<0.05
# Method: Each of the blood and PFC sample was obtained from a mouse anesthetized with CO2 gas. Specifically, mouse blood was collected between 9 AM and 11 AM and stored in a K3EDTA-coated vacuum container. Plasma was obtained by centrifuge for 10 minutes at 4° C., 500×g. PFC sample was weighed first, and, after lysis of the tissues by using Bullet homogenizer, subjected to centrifuge for 20 minutes at 4° C., 12,000 rpm. Thus-obtained plasma and tissue lysate were kept at −80° C. until use. After that, the animal was sacrificed, and a change in corticosterone amount in plasma was examined. ROS/RNS in plasma and PFC was also examined. The corticosterone amount was examined using an ELISA kit (Cayman) by following the manufacturer's protocol, and ROS/RNS was also examined using an ROS/RNS assay kit (Cell Biolabs, San Diego, CA, USA) by following the manufacturer's protocol. The animal models were divided into two groups (i.e., normal group and stress group). The animal of stress group was individually brought by force to a restrainer for 2 hours every day (i.e., between 2 PM and 4 PM) so that it was applied with chronic immobilization stress for 15 days. Change in bodyweight and food intake amount were measured every other day. The normal group and stress group were divided again into a normal diet group and a tyrosine-supplemented diet group (181.2 mg/kg), and then fed.
# [2] = test system: high-fat diet mouse model of type 2 diabetes; experiment: ROS/RNS amount in plasma, high-fat diet model; assay type: in vivo; conditions: HFD+L-Tyr vs HFD
# Method: Twenty-seven C57BL/6 male mice (3-week old) were acclimated to the breeding condition for 1 week. […] Blood glucose was measured every week.
# Mouse was anesthetized with avertin, and blood was collected from a heart. After the reaction with EDTA in a vacucontainer, the blood was centrifuged for 15 minutes at 1,500×g, 4° C. to separate plasma. According to heart perfusion with PBS and 4% paraformaldehyde (PFA), tissue fixation was carried out. Then, each tissue was harvested and stored in PFA.
# After 3-fold dilution of the plasma in PBS, concentration of reactive oxygen/reactive nitrogen (ROS/RNS) in plasma was measured using Oxiselect ROS/RNS assay kit (Cell Biolabs) according to the recommended experimental protocol.
# [3] = test system: mouse model of epileptic seizure which has been induced to have seizure by kainic acid; experiment: ROS/RNS in hippocampal tissues after kainic acid; assay type: in vivo; conditions: mouse survived after kainic acid, tyrosine diet vs ND
# Method: Hippocampus in brain tissues was added with RIPA (containing proteinase/phosphatase inhibitor), in an amount of 100 μl per 10 mg of the tissues, and then lysed for 1 minute by using glass beads and a bullet blender. Supernatant was separated by centrifuge for 15 minutes at 12,000×g, 4° C., and, after 10-fold dilution with PBS, used for measurement of ROS/RNS. Concentration of ROS/RNS was measured by using Oxiselect ROS/RNS assay kit (Cell Biolabs) according to the recommended experimental protocol.
# human recombinant MnSOD = target: T1, human recombinant MnSOD (Homo sapiens, UniProt P04179); experiment: SOD activity of human recombinant MnSOD treated with peroxynitrite; assay type: biochemical; conditions: human recombinant MnSOD with peroxynitrite (2.1 mM PN), 10 minutes on ice
# T1 sequence (P04179 25-222): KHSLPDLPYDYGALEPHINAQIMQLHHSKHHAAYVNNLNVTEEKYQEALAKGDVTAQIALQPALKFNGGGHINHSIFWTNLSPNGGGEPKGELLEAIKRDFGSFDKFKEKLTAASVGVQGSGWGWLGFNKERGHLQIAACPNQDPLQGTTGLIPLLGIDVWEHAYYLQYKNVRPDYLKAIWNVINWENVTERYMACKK
# Method: Peroxynitrite was diluted by 40 times with 0.3 M NaOH, and absorbance at 302 nm was measured. Then, it was quantified by using the molar absorption coefficient of peroxynitrite) (ε302=1670 M^−1 cm^−1).
# For the measurement of SOD activity, SOD colorimetric activity kit by ThermoFisher was used. Human recombinant MnSOD within reference SOD range, peptide, and peroxynitrite were admixed with one another, and the reaction was allowed to occur on ice for 10 minutes. To a 96-well plate, 10 μl of reference SOD or the reaction mixture, and 50 μl of a substrate solution provided in the kit were added, and the absorbance at 450 nm was measured. After adding 25μl of xanthine oxidase provided in the kit and allowing the reaction to occur for 20 minutes at room temperature, absorbance at 450 nm was measured. By using the data obtained by subtracting the first-measured absorbance from the second-measured absorbance, SOD activity was obtained.
# IL-6 = IL-6 gene expression in kidney tissues (quantitative real-time PCR), renal ischemia and reperfusion; assay type: in vivo, mouse; conditions: L-tyrosine 100 mg/kg oral once a day for 4 days, 24 hours after ischemia and reperfusion
# Method: (§1) C57BL/6 male mouse (23 to 25 g, KOATECH, South Korea) was allowed to have free access to diets and water in sterile breeding room with constant temperature and humidity. The animals were divided into 3 test groups, i.e., 1) Control group (Sham), 2) Renal ischemia having treatment with prepared solvent and induced reperfusion group (CMC+IR), and 3) Renal ischemia having treatment with L-tyrosine and induced reperfusion group (L-Tyr+IR).
# L-Tyrosine (100 mg/kg) was suspended in 0.5% CMC (carboxymethyl cellulose). The animal was orally administered, once a day for 4 days, with L-tyrosine or the prepared solvent CMC. Thirty minutes after the oral administration on Day 4, renal ischemia was caused. Specifically, the animal abdomen was cut and renal pedicles at both sides were clamped using a Muller atraumatic vascular clamp to cause renal ischemia. After 25 minutes of blood ischemia, the clamp was removed followed by reperfusion. The control group (Sham) received the same operational procedures as above except the ischemia using clamp. […]
# According to Trizol method, total RNA was extracted from kidney tissues, and cDNA was synthesized by using Revert Aid Reverse Transcription System (ThermoFisher). Quantitative PCR was carried out with CFX Connect Real-Time PCR system (Bio-Rad) by using iQ SYBR Green Super mix (Bio-Rad). […]
# nitrotyrosine protein = nitrotyrosine protein in kidney tissues (Western blot), renal ischemia and reperfusion; assay type: in vivo, mouse; conditions: L-tyrosine 100 mg/kg oral for 4 days, 24 hours after ischemia and reperfusion
# Method: as §1
# L-Tyrosine (100 mg/kg) was suspended in 0.5% CMC (carboxymethyl cellulose). The animal was orally administered, once a day for 4 days, with L-tyrosine or the prepared solvent CMC. Thirty minutes after the oral administration on Day 4, renal ischemia was caused. Specifically, the animal abdomen was cut and renal pedicles at both sides were clamped using a Muller atraumatic vascular clamp to cause renal ischemia. After 25 minutes of blood ischemia, the clamp was removed followed by reperfusion. The control group (Sham) received the same operational procedures as above except the ischemia using clamp. Twenty-four hours after the reperfusion, the test animal was sacrificed, blood was collected from the heart, and the tissues were harvested.
# Kidney tissues were homogenized with RIPA buffer solution. After centrifuge for 15 minutes at 16,000×g, 4° C., supernatant was collected and the protein quantification was carried out by BCA method. […]
SMILES,corticosterone amount in plasma [1],plasma ROS/RNS level ([2]; listed as Tyr),ROS/RNS amount in hippocampal tissues [3],MnSOD (SOD) activity (human recombinant MnSOD; listed as Tyr),plasma ROS/RNS level [2],MnSOD (SOD) activity (human recombinant MnSOD),gene expression of IL-6 in kidney tissues (IL-6),amount of nitrotyrosine protein in kidney tissues (nitrotyrosine protein)
N[C@@H](Cc1ccc(O)cc1)C(=O)O [tyrosine],statistically significant decrease in corticosterone amount,statistically significant decrease in tissue weight and ROS/RNS amount in plasma,reduced to the level of the control group; also recorded: statistically significant decrease in ROS/RNS amount,SOD activity can be maintained,–,–,–,–
N[C@@H](Cc1ccc(O)cc1)C(=O)O [L-tyrosine],–,–,–,–,statistically significant decrease in plasma ROS/RNS level,higher MnSOD activity,suppressed,significantly reduced
